Measured values as given in publication PMC6151508, “Development of Novel Nrf2/ARE Inducers Bearing Pyrazino[2,1-a]isoquinolin Scaffold with Potent In Vitro Efficacy and Enhanced Physicochemical Properties” (Molecules : A Journal of Synthetic Chemistry and Natural …, 2017).
Counter-ions that a name gives are not always drawn.

Tests used:
[1] = system: antioxidant response element (ARE); experiment: ARE luciferase reporter assay in HepG2-ARE-C8 cells; assay type: cell-based; conditions: HepG2-ARE-C8, 12 h of treatment, mean ± SD n = 3, read-out: ARE Inductivity in Luciferase Reporter Assay (induction fold)
Description: (§1) All the derivatives were evaluated for their ability to induce ARE in HepG2-ARE-C8 cell (HepG2 cells stably transfected with a luciferase reporter) by ARE luciferase reporter assay, and they were compared to the lead compound 2. At the same time, cytotoxicity studies were performed by the MTT assay against the HCT116 cells. The results of cytotoxic activity in vitro were expressed as the IC50 [18]. Because those compounds were designed for chemoprevention, they should not be cytotoxic.
HepG2-ARE-C8 cells (4 × 10^4 cells/well) were incubated overnight in 96-well plates, and then treated with different concentrations of test compounds. tBHQ was used as a positive control, DMSO was used as a negative control, and the luciferase cell culture lysis reagent was used as a blank. The medium was removed after 12 h treatment. Then, the cells were harvested in the luciferase cell culture lysis reagent together with 100 μL of cold PBS. Then, centrifuging the solution and 20 μL of the supernatant was used for determining the luciferase activity. The luciferase activity was measured by a Luminoskan Ascent (Thermo Scientific, Waltham, MA, USA). The data were obtained in triplicate and expressed as fold induction over the control. Induction fold = (RLUtest − RLUblank)/(RLUDMSOcontrol − RLUblank). RLU = relative light unit l.

[2] = MTT cell viability (cytotoxicity) assay; assay type: cell-based; conditions: human, HCT116 cells
Description: as §1
Cell viabilities were determined by using 3-[4,5-dimethylthiazol-2-yl]-2,5-diphenyltetrazolium bromide (MTT) assay. MTT was dissolved in (phosphate buffered solution) PBS to a concentration of 5 mg/mL. HCT116 cells (8 × 10^3 cells/well) were plated in 96-well plates and incubated overnight. Different concentrations of test compounds were added to each cell for 24 h at 37 °C, and the 20 μL MTT solution was added and incubated for an additional 4 h. Then, 100 μL of DMSO was added to dissolve formazan precipitate after the solution was removed. The OD value was determined at 570 nm by Elx800 absorbance microplate reader (BioTek, Winooski, VT, USA). IC50 value (concentration at which cell survival equals 50% of control) = […].

| SMILES | melting point [°C] | fold induction at 0.1 µM [1] | fold induction at 1 µM [1] | fold induction at 5 µM [1] | fold induction at 10 µM [1] | fold induction at 50 µM [1] | fold induction at 100 µM [1] | IC50 at 24 h [2] [µM] |
| --- | --- | --- | --- | --- | --- | --- | --- | --- |
| O=C(C=C1NCC2c3ccccc3CCN2C1=O)c1cnc2ccccc2c1 (centres unmarked) [Compound 2h, 3-(2-oxo-2-(quinolin-3-yl)ethylidene)-1,2,3,6,7,11b-hexahydro-4H-pyrazino[2,1-a]isoquinolin-4-one] | 245 to 247 | 2.06 ± 0.98 | 3.4 ± 0.02 | 3.62 ± 0.29 | 4.59 ± 0.14 | 4.38 ± 1.94 | 4.98 ± 0.53 | 92.4 |
| COc1cccc(C(=O)C=C2NCC3CCCCN3C2=O)c1 (centres unmarked) [Compound 3e, 3-(2-(3-methoxyphenyl)-2-oxoethylidene)octahydro-4H-pyrido[1,2-a]pyrazin-4-one] | 133 to 135 | 1.4 ± 1.21 | 1.82 ± 1.15 | 6.59 ± 0.77 | 9.16 ± 0.42 | 9.36 ± 3.76 | 1.44 ± 1.75 | > 300 |
| COC(=O)/C=C/C(=O)OC [DMF, Dimethyl fumarate, reference compound] |  | 1.04 ± 0.21 | 1.1 ± 0.11 | 1.4 ± 0.21 | 2.06 ± 0.25 | 3.34 ± 0.52 | 5.31 ± 0.24 |  |
| CC(=O)Nc1cccc(C(=O)C=C2NCC3c4ccccc4CCN3C2=O)c1 (centres unmarked) [Compound 1c, N-(3-(2-(4-oxo-1,6,7,11b-tetrahydro-2H-pyrazino[2,1-a]isoquinolin-3(4H)-ylidene)acetyl)phenyl)acetamide] | 247 to 249 | 0.8 ± 0.19 | 0.78 ± 0.36 | 2.3 ± 0.39 | 3.05 ± 0.53 | 3.09 ± 0.09 | 3.41 ± 0.65 | > 300 |
| O=C(C=C1NCC2c3ccccc3CCN2C1=O)C1CCCCC1 (centres unmarked) [Compound 2e, 3-(2-cyclohexyl-2-oxoethylidene)-1,2,3,6,7,11b-hexahydro-4H-pyrazino[2,1-a]isoquinolin-4-one] | 203 to 205 | 1.92 ± 0.82 | 2.17 ± 1.05 | 3.03 ± 0.68 | 3.49 ± 0.64 | 3.92 ± 0.53 | 8.31 ± 0.25 | > 300 |
| O=C(C=C1NCC2CCCCN2C1=O)c1cccc([N+](=O)[O-])c1 (centres unmarked) [Compound 3d, 3-(2-(3-nitrophenyl)-2-oxoethylidene)octahydro-4H-pyrido[1,2-a]pyrazin-4-one] | 174 to 176 | 1.96 ± 0.88 | 3.85 ± 1 | 12 ± 2.55 | 19.5 ± 3.09 | 47.6 ± 3.54 | 8.66 ± 3.27 | 181 |
| Nc1cccc(C(=O)C=C2NCC3c4ccccc4CCN3C2=O)c1 (centres unmarked) [Compound 1a, 3-(2-(3-aminophenyl)-2-oxoethylidene)-1,2,3,6,7,11b-hexahydro-4H-pyrazino[2,1-a]isoquinolin-4-one] | 206 to 208 | 0.56 ± 0.28 | 1.66 ± 0.05 | 2.4 ± 1.18 | 5.64 ± 2.06 | 7.53 ± 1.28 | 7.62 ± 2.79 | > 300 |
| O=C(C=C1NCC2CCCCN2C1=O)c1nccs1 (centres unmarked) [Compound 3i, 3-(2-oxo-2-(thiazol-2-yl)ethylidene)octahydro-4H-pyrido[1,2-a]pyrazin-4-one] | 151 to 153 | 1.52 ± 0.87 | 4.02 ± 3.05 | 6.41 ± 1.48 | 9.28 ± 0.55 | 13.5 ± 0.8 | 16.7 ± 1.39 | > 300 |
| CCCC(=O)C=C1NCC2c3ccccc3CCN2C1=O (centres unmarked) [Compound 2a, 3-(2-oxopentylidene)-1,2,3,6,7,11b-hexahydro-4H-pyrazino[2,1-a]isoquinolin-4-one] | 158 to 160 | 2.38 ± 0.11 | 2.28 ± 0.78 | 2.55 ± 0.31 | 3.09 ± 1.09 | 6.74 ± 0.67 | 19.6 ± 0.47 | > 300 |

Further lines, with some results ahead:

| melting point [°C] | SMILES | fold induction at 0.1 µM [1] | fold induction at 1 µM [1] | fold induction at 5 µM [1] | fold induction at 10 µM [1] | fold induction at 50 µM [1] | fold induction at 100 µM [1] | IC50 at 24 h [2] [µM] |
| --- | --- | --- | --- | --- | --- | --- | --- | --- |
| 185 to 187 | O=C(C=C1NCC2c3ccccc3CCN2C1=O)C1CCCC1 (centres unmarked) [Compound 2d, 3-(2-cyclopentyl-2-oxoethylidene)-1,2,3,6,7,11b-hexahydro-4H-pyrazino[2,1-a]isoquinolin-4-one] | 1.06 ± 0.09 | 3.19 ± 0.52 | 4.06 ± 0.3 | 7.38 ± 0.31 | 5.22 ± 1.28 | 5.83 ± 0.38 | 161 |
| 235 to 237 | O=C(C=C1NCC2c3ccccc3CCN2C1=O)c1ccc(N2CCOCC2)cc1 (centres unmarked) [Compound 2i, 3-(2-(4-morpholinophenyl)-2-oxoethylidene)-1,2,3,6,7,11b-hexahydro-4H-pyrazino[2,1-a]isoquinolin-4-one] | 1.71 ± 0.71 | 1.88 ± 1.36 | 1.37 ± 0.19 | 1.66 ± 0.53 | 1.16 ± 0.63 | 1.42 ± 0.31 | 237 |
| 157 to 159 | O=C(C=C1NCC2CCCCN2C1=O)c1cccc(Cl)c1 (centres unmarked) [Compound 3c, 3-(2-(3-chlorophenyl)-2-oxoethylidene)octahydro-4H-pyrido[1,2-a]pyrazin-4-one] | 1.85 ± 0.21 | 8.41 ± 0.04 | 10.2 ± 3.44 | 11.4 ± 1.12 | 1.13 ± 1.03 | 1.33 ± 0.19 | 174 |
| 197 to 199 | O=C(C=C1NCC2CCCCN2C1=O)c1ccc(-c2ccccc2)cc1 (centres unmarked) [Compound 3f, 3-(2-([1,1′-biphenyl]-4-yl)-2-oxoethylidene)octahydro-4H-pyrido[1,2-a]pyrazin-4-one] | 2.96 ± 0.66 | 2.21 ± 0.52 | 3.6 ± 0.42 | 1.76 ± 0.1 | 2.47 ± 0.03 | 2.69 ± 2.75 | 184 |
| 151 to 153 | O=C(C=C1NCC2CCCCN2C1=O)c1cccc2ccccc12 (centres unmarked) [Compound 3j, 3-(2-(naphthalen-1-yl)-2-oxoethylidene)octahydro-4H-pyrido[1,2-a]pyrazin-4-one] | 1.7 ± 0.19 | 2.34 ± 0.53 | 2.54 ± 0.99 | 3.52 ± 0.57 | 3.85 ± 0.34 | 1.96 ± 0.71 | 264 |
| 173 to 175 | O=C(C=C1NCC2c3ccccc3CCN2C1=O)C1CC1 (centres unmarked) [Compound 2b, 3-(2-cyclopropyl-2-oxoethylidene)-1,2,3,6,7,11b-hexahydro-4H-pyrazino[2,1-a]isoquinolin-4-one] | 3.71 ± 1.41 | 3.57 ± 1.08 | 4.85 ± 0.82 | 6.58 ± 2 | 8.24 ± 0.62 | 12.9 ± 1.73 | > 300 |
| 180 to 182 | O=C(C=C1NCC2c3ccccc3CCN2C1=O)C1=CCCCC1 (centres unmarked) [Compound 2f, 3-(2-(cyclohex-1-en-1-yl)-2-oxoethylidene)-1,2,3,6,7,11b-hexahydro-4H-pyrazino[2,1-a]isoquinolin-4-one] | 3.27 ± 1.59 | 2.1 ± 0.59 | 5.46 ± 1.83 | 8.45 ± 1.05 | 3.34 ± 1.05 | 3.07 ± 0.43 | 171 |
| 182 to 184 | O=C(C=C1NCC2CCCCN2C1=O)c1cccs1 (centres unmarked) [Compound 3h, 3-(2-oxo-2-(thiophen-2-yl)ethylidene)octahydro-4H-pyrido[1,2-a]pyrazin-4-one] | 2.06 ± 0.22 | 2.12 ± 0.31 | 8.3 ± 2.55 | 10.5 ± 3.82 | 28.9 ± 0.46 | 1.63 ± 0.25 | > 300 |
